Experimental data reported in patent US11691984B2, “Compounds and methods for DCAF-mediated protein degradation” (The Scripps Research Institute, priority 2018, dated 2023).

What was measured:
[1] = Cell viability assay (Cell Titer Glo); format: cell-based, human; conditions: human, HEK293T cells, 24 hours, read-out: cytotoxicity IC50
Protocol: HEK293T cells were seeded in 96-well clear bottom white plate (Corning) at 3×10^4 cells per well in 100 μL of DMEM medium and grown for 24 h. The cells were treated with 0.625, 1.25, 2.5, 5, 10, 20 and 40 μM of KB02-SLF or KB02-JQ1 (DMSO stock, final DMEM concentration is 0.1% (v/v)) in 100 μL of DMEM medium for 24 h. 50 μL of Cell Titer Glo reagent (Promega) was added to each well and incubate for 10 min at room temperature. The luminescence was read on CLARIOstar (BMG LAB TECH).

ACAT1 = target: T1, ACAT1 (Homo sapiens, UniProt P24752); assay: Competitive ABPP (TMT) of cysteine engagement in ACAT1; format: cell-based; conditions: HEK293T, 1.5 h
T1 construct: endogenous in cells; host or cells: HEK293T
T1 sequence (P24752 34-427): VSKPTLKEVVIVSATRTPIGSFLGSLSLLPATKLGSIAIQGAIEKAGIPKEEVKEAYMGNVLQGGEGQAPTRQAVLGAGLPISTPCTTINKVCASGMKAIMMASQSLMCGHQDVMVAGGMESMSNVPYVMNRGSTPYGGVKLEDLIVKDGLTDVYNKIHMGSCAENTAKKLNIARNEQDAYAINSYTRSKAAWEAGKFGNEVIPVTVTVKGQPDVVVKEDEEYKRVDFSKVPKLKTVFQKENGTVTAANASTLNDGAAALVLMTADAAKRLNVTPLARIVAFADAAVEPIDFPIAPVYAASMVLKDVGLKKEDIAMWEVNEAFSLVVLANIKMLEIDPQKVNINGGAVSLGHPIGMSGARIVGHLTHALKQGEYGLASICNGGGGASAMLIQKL
Protocol: HEK293T cells were treated with DMSO (four biological replicates), 2 μM KB02-SLF (three biological replicates) or 20 μM KB02-JQ1 (three biological replicates) for 1.5 h (ten samples in total). Cells were collected, washed once with PBS and lysed in PBS by sonication (40%, 4, 20 pulses). Samples were clarified by centrifugation for 10 min at 8,000 g. Lysate was adjusted to 1.0 mg/mL in 500 μL. Samples were labeled with 100 μM iodoacetamide alkyne (5 μL of 10 mM stock in DMSO) at room temperature for 1 hour, conjugated by CuACC to desthiobiotin azide (10 μL of 5 mM stock in DMSO, final concentration=100 tris(2-carboxyethyl)phosphine hydrochloride (TCEP, 10 μL of 50 mM stock in H2O, final concentration=1 mM), TBTA (30 μL of 1.7 mM stock in 4:1 tBuOH:DMSO, final concentration=100 μM) and CuSO4 (10 μL of 50 mM stock in H2O, final concentration=1 mM). The samples were allowed to react for 1 hour at room temperature. Proteins were precipitated by adding 3.5 mL of H2O, 4 mL of methanol and 1.5 mL of chloroform, followed by centrifugation at 5,000 g for 15 min (4° C.). After aspirating the top layer, the protein pellets with bottom layer were washed with 8 mL cold methanol by centrifugation at 5,000 g for 15 min (4° C.). […]
The samples were analyzed in Orbitrap Fusion Tribrid mass spectrometer (Thermo Scientific) coupled to UltiMate 3000 HPLC system (Thermo Scientific). […]

Row | engagement of ACAT1 C126 (ACAT1; KB02-JQ1 20 μM) | SMILES | IC50 at 24 h [1] [µM] | engagement of ACAT1 C126 (ACAT1; KB02-SLF 2 μM)
1 | fully engaged | Cc1sc2c(c1C)C(c1ccc(Cl)cc1)=N[C@@H](CC(=O)NCCOCCOCCNC(=O)COc1ccc3c(c1)CCCN3C(=O)CCl)c1nnc(C)n1-2 [KB02-JQ1, (S)-2-((1-(2-chloroacetyl)-1,2,3,4-tetrahydroquinolin-6-yl)oxy)-N-(2-(2-(2-(2-(4-(4-chlorophenyl)-2,3,9-trimethyl-6H-thieno[3,2-f][1,2,4]triazolo[4,3-a][1,4]diazepin-6-yl)acetamido)ethoxy)ethoxy)ethyl)acetamide] | > 50 | –
2 | – | CCC(C)(C)C(=O)C(=O)N1CCCC[C@H]1C(=O)O[C@H](CCc1ccc(OC)c(OC)c1)c1cccc(NC(=O)CCOCCOCCNC(=O)COc2ccc3c(c2)CCCN3C(=O)CCl)c1 [KB02-SLF, (R)-1-(3-(3-(2-(2-(2-((1-(2-chloroacetyl)-1,2,3,4-tetrahydroquinolin-6-yl)oxy)acetamido)ethoxy)ethoxy)propanamido)phenyl)-3-(3,4-dimethoxyphenyl)propyl (S)-1-(3,3-dimethyl-2-oxopentanoyl)piperidine-2-carboxylate] | 14 ± 1.1 | fully engaged
